Tests used:
[1] = system: PolyRes strain of Haemonchus contortus (resistant against levamisole, mebendazole, ivermectin and closantel); experiment: Efficacy study of anthelmintics in in vivo H. contortus/jirds model; set-up: species or system Haemonchus contortus in jirds (Meriones unguiculatus); details: jirds, oral; for Med. W.b. (median worm burden): treated day 11, necropsy day 14; for % Efficacy: reduction of mean worm count vs control group; for anthelmintic efficacy compared with art known compounds (A) and (B): multi-resistant strain of Haemonchus contortus, comparison in words
Procedure: The anthelmintic efficacy of the compounds of the present invention was evaluated in an in vivo model using unmedicated jirds (Meriones unguiculatus), inoculated three times with approximately 300 exsheated infective larvae of Haemonchus contortus (multiresistant strain), treated orally with a test compound 11 days after their first infection with H. contortus larvae, and necropsied on day 14 to count the number of recovered H. contortus worms. The anthelmintic efficacy of the art known compounds (A) and (B) was also evaluated using the same model.
Female CRW jirds aged between 28 and 35 days and weighing 30-35 g (Charles River, Sulzfeld, Germany) were used. Three jirds each were assigned randomly upon arrival to translucent polysulfone individually ventilated cages (48×37.5×21 cm) containing wood shavings. Commercial rodent chow and water were given ad libitum. Following a four-day acclimation period, the jirds were artificially infected.
A PolyRes strain of Haemonchus contortus (resistant against levamisole, mebendazole, ivermectin and closantel) was used. This strain has been maintained in artificially infected male donor lambs. Individual feces containing Haemonchus eggs were collected in fecal bags. The fecal pellets were broken, mixed with charcoal, moistened and put in an incubator for embryonation at 28° C. and 95% relative humidity. Seven days later this mixture was placed in Baermann funnels and third stage ensheathed larvae were collected after 12 hours. These larvae were rinsed with water for cleaning and disinfected with a 2% formalin solution. Such larvae can be used immediately for artificial infection or can be stored in the fridge at about 8° C. for a maximum duration of 6 months. Infective larvae (<6 months old) were exsheathed by rinsing with a 3.3 vol % commercial sodium hypochlorite solution during 10 minutes, filtered through a Buchner funnel, rinsed with water, concentrated in a Baermann funnel, and collected after 2 hours. Exsheathed larvae prepared in this manner can be used for subsequent infection of jirds or laid in a supply for extended periods by cooling in the gas over liquid nitrogen during 1 hour and storing in liquid nitrogen at −196° C.
All jirds were inoculated orally with approximately 300 exsheathed infective larvae of H. contortus per dose on three consecutive days. Inoculations were administered using a blunted 18 G dosing needle fitted to a 1 ml syringe.
Eleven days after their first infection jirds were treated with test compounds, suspended or dissolved in 0.4 ml DMSO, and the dose to be tested was administered in a volume of 0.1 ml/50 g bodyweight via a blunted 18 G dosing needle fitted to a 1 ml syringe. Control animals, included in each experiment, remained untreated. Levamisole hydrochloride, mebendazole, ivermectin and closantel were used in different dosage titration experiments to validate the model.
All jirds were starved 20 hours before necropsy and killed on day 14 past first infection by CO2 inhalation. For worm recovery their stomachs were removed, opened longitudinally, and incubated in a beaker with 20 ml digestion fluid (10 g pepsin+30 ml concentrated hydrochloric acid) at 37° C. for 3 hours. Following digestion, the stomach content was passed through a tea-strainer, the passage fluid was catched in a sieve (32 μm) and the worms were recovered with tap water. The beakers were stored in the fridge for subsequent counting.
The content of each beaker was mixed, poured over in a 6-well plate in 6 aliquots, and the worms were counted under an inverted microscope.

melting point | Compound | Med. W.b. (median worm burden) ([1]; dose 5 mpk) | % Efficacy ([1]; dose 5 mpk) | Med. W.b. (median worm burden) ([1]; dose 10 mpk) | % Efficacy ([1]; dose 10 mpk) | Med. W.b. (median worm burden) ([1]; dose 2.5 mpk) | % Efficacy ([1]; dose 2.5 mpk) | anthelmintic efficacy compared with art known compounds (A) and (B) [1]
– | c1cc(NCC2CCCO2)cc([C@H]2CN3CCSC3=N2)c1 (stereo partly drawn) [Co. No. B, (tetrahydrofuran-2-ylmethyl)-[3-(2,3,5,6-tetrahydro-imidazo[2,1-b]thiazol-6-yl)-phenyl]-amine, reference compound] | 10.0 | 55.6% | 14.0 | 60.6% | – | – | –
42 to 57 °C | O=C(Nc1cccc([C@H]2CN3CCSC3=N2)c1)[C@H]1CCCO1 [Co. No. 1, (2R)-tetrahydro-furan-2-carboxylic acid (6S)-[3-(2,3,5,6-tetrahydro-imidazo[2,1-b]thiazol-6-yl)-phenyl]-amide] | 6.0 | 79.3% | 0.0 | 100.0% | 36.0 | 65.9% | better demonstrated anthelmintic efficacy than the art known compounds (A) and (B)
– | O=C(Nc1cccc([C@H]2CN3CCSC3=N2)c1)c1ccco1 [Co. No. A, furan-2-carboxylic acid [3-(2,3,5,6-tetrahydro-imidazo[2,1-b]thiazol-6-yl)-phenyl]-amide, reference compound] | 11.0 | 35.3% | 7.0 | 65.0% | – | – | –
– | O=C(Nc1cccc([C@H]2CN3CCSC3=N2)c1)C1CCCO1 (stereo partly drawn) [Co. No. 4] | 5.0 | 68.8% | 3.0 | 85.0% | – | – | better demonstrated anthelmintic efficacy than the art known compounds (A) and (B)

Reference: US20080287511A1, “Anthelmintic Imidazol-Thiazole Derivates” (priority 2005, published 2008)
